{"source": "paper PMC12668304", "about": "“A Triple Threat Against Ovarian Cancer: Os(II)‐Pt(IV)‐Ceritinib Conjugates for Photodynamic Therapy, Chemotherapy, and Immunogenic Cell Death Induction” (Angewandte Chemie (International Ed. in English), 2025)", "tested_on": "calreticulin (CRT) exposure on MCA205 cells", "assay": "Externalisation of calreticulin (confocal microscopy, anti-CRT antibody)", "type": "cell-based, mouse", "conditions": "positive control, light condition not stated", "description": "Surface exposure of CRT was measured via confocal fluorescence microscopy after staining with an anti‐CRT antibody (ab2907). […] The surface exposure in the dark might be due to the oxaliplatin, a bona fide ICD inducer. Specifically, CRT expression increased by 67% upon irradiation and 63% in the dark, compared with non‐treated cells.\nFigure 8 Translocation and changes in calreticulin (CRT) exposure on MCA205 cells determined by confocal fluorescence microscopy after 4 h treatment under dark (−L) and light (+L) (740 nm, 1 h) conditions, and an additional 16 h of incubation. DAPI: Nuclear fluorescence dye. Scale bar: 20 µm.\nThe localisation of the different parts of the studied complexes was determined by measuring the Os and Pt content inside A2780 cells via ICP-MS. […] After this time, the cells were trypsinized and counted. […] In parallel, the content of Os and Pt was determined in a total cell extraction (2·10 6 cells). […] The Os and Pt content was determined using an ICP -MS apparatus and comparing the results with the Os and Pt calibration standards.\nA2780 cells were seeded in a 12-well plate to obtain a 90 –100% confluency. […] The cells were monitored by imaging over the following time intervals: 0, 6, 24, 32, and 48 h. […]\nExtracellular ATP released from treated MCA205 and A2780 cells was detected by the luminescent ATP assay kit (ab113849). […]", "data": [{"compound": "O=C1[O][Pt]2([NH][C@@H]3CCCC[C@H]3[NH]2)[O]C1=O", "note": "[Oxaliplatin]", "values": [{"measurement": "CRT increase", "result": 21, "unit": "%"}]}]}
